Reference: ChEMBL document CHEMBL3244339, “Antitumor 1-(X-aryl)-3,3-dialkyltriazenes. 1. Quantitative structure-activity relationships vs. L1210 leukemia in mice” (J Med Chem, 1978)
Activity calls are given as the source filed them. No cut-off for these calls is given here.

Assays:
L1210 [1] = experiment: Antitumor activity against mouse L1210 cells allografted in mouse assessed as increase of host lifespan; assay type: functional
[2] = Distribution coefficient, log P of the compound; assay type: physicochemical; details: octanol/water
Mus musculus = species: Mus musculus; experiment: Toxicity in mouse L1210 cells allografted mouse assessed as mortality up to 5 days; assay type: organism-based; details: l1210, 120 h
[3] = Aqueous phase distribution coefficient, log P of the compound in 0.01 M NaOH; assay type: physicochemical
L1210 [4] = experiment: Antitumor activity against mouse L1210 cells allografted in mouse assessed as increase of host lifespan of 110 days; assay type: functional, cell-based
[5] = Octanol-saturated water partition coefficient, log D of the compound; assay type: physicochemical

| Compound | log(1/C) (L1210 [1]) | other results |
| --- | --- | --- |
| CN(C)/N=N/c1cc(C(N)=O)cc(C(N)=O)c1 | 3.27 | logP [2]: 0.22 |
| CN(/N=N/c1ccc(C(N)=O)cc1)c1cccs1 | 2.9 | – |
| CC(=O)c1ccc(/N=N/N(C)C)cc1 | – | Activity (Mus musculus): Toxic |
| CN(CCO)/N=N/c1n[nH]cc1C(N)=O | 3.1 | – |
| CCCc1nc(/N=N/N(C)C)c(C(N)=O)[nH]1 | 3.42 | – |
| CCOC(=O)c1[nH]cnc1/N=N/N(C)C | 3.98 | logP [2]: 0.44 |
| CN(CCc1ccccc1)/N=N/c1nc[nH]c1C(N)=O | 3.49 | – |
| CCCN(C)/N=N/c1ccccc1C(=O)O | 3.74 | logP [3]: -1.66 |
| CN(/N=N/c1ccccc1C(=O)O)C1CCCCC1 | – | Activity (Mus musculus): Toxic |
| CC(=O)c1cccc(/N=N/N(C)C)c1 | 3.58 | – |
| CC(C)CN(C)/N=N/c1nc[nH]c1C(N)=O | 3.51 | – |
| CN(C)/N=N/c1ccc(NC=O)cc1 | 3.85 | – |
| CC(=O)Nc1ccc(/N=N/N(C)C)cc1 | 4.04 | – |
| CCCCN(C)/N=N/c1[nH]cnc1C(N)=O | 3.54 | – |
| CCOC(=O)c1[nH]c(-c2ccccc2)nc1/N=N/N(C)C | 3.48 | – |
| COC(=O)c1n[nH]c(C(C)C)c1/N=N/N(C)C | 3.3 | – |
| Cc1[nH]nc(C(N)=O)c1/N=N/N(C)C | 3.84 | – |
| CCOC(=O)c1ccc(/N=N/N(C)CC)cc1 | 3.01 | – |
| CN(CCO)/N=N/c1ccccc1Cl | – | Activity (Mus musculus): Toxic |
| CN(C)/N=N/c1nc(Cc2ccccc2)[nH]c1C(N)=O | 2.89 | – |
| CCCCN(C)/N=N/c1ccc(CCC(=O)OCC)cc1 | 3.02 | – |
| CN(C)/N=N/c1ccccc1C(F)(F)F | – | Activity (L1210 [4]): inactive |

| Compound | log(1/C) (L1210 [1]) | other results |
| --- | --- | --- |
| CCCCN(C)/N=N/c1n[nH]cc1C(N)=O | 3.81 | – |
| CN(C)/N=N/c1ccc(NC(N)=O)cc1 | 3.97 | logP [2]: 1.25 |
| CN(C)/N=N/c1ccc([N+](=O)[O-])cc1C(=O)O | – | Activity (L1210 [4]): inactive |
| COC(=O)c1ccc(/N=N/N(C)C)cc1 | 3.2 | – |
| CN(C)/N=N/c1ccccc1C(=O)NCC#N | 3.22 | logP [2]: 1.79 |
| CCCCN(C)/N=N/c1ccc([N+](=O)[O-])cc1C(N)=O | 3.08 | – |
| CCCCN(C)/N=N/c1n[nH]cc1C(=O)OCC | 3.16 | – |
| CN(C)/N=N/c1ccccc1C(=O)NC#N | – | logD [5]: 0.8 |
| CN(C)/N=N/c1ccc(C#N)cc1 | – | Activity (Mus musculus): Toxic; logD [5]: 2.39 |
| COC(=O)c1c[nH]nc1/N=N/N(C)C | 3.49 | logD [5]: 0.04 |
| CN(C)/N=N/c1cccc(C(N)=O)c1 | 3.8 | – |
| CONC(=O)c1ccccc1/N=N/N(C)C | – | Activity (Mus musculus): Toxic |
| CCCCN(C)/N=N/c1ccccc1C(=O)O | 3.15 | – |
| C=CCN(C)/N=N/c1ccc(NC(N)=O)cc1 | 3.77 | – |
| CN(C)/N=N/c1ccccc1[N+](=O)[O-] | 3.28 | – |
| COC(=O)c1cccc(/N=N/N(C)C)c1 | 3.42 | – |
| CCCCCN(C)/N=N/c1nc[nH]c1C(N)=O | 3.58 | – |
| COc1ccc(/N=N/N(C)C(=O)c2ccccc2)cc1 | 3.05 | – |
| CN(C)/N=N/c1ccc(S(N)(=O)=O)cc1 | 3.6 | logP [2]: 0.98 |
| CN(C)/N=N/c1ccc(Cl)cc1C(=O)O | – | Activity (L1210 [4]): inactive |
| CN(Cc1ccccc1)/N=N/c1nc[nH]c1C(N)=O | 3.43 | logP ([2]; read-out: logP): 1.54 |
| CCCCN(C)/N=N/c1ccccc1C(N)=O | 3.1 | – |

| Compound | log(1/C) (L1210 [1]) | other results |
| --- | --- | --- |
| C=CCN(CC=C)/N=N/c1ccc(C(N)=O)cc1 | – | Activity (Mus musculus): Toxic |
| CC(=O)N(C)/N=N/c1ccc(C)cc1 | 2.78 | logP ([2]; read-out: logP): 3.13; logD [5]: 3.13 |
| CCCCCCCCN(C)/N=N/c1ccc(C(N)=O)cc1 | 2.84 | – |
| CN(C)/N=N/c1[nH]cnc1C(N)=O [DACARBAZINE] | 3.29 | – |
| CN(C)/N=N/c1c[nH]nc1C(N)=O | 3.42 | – |
| CCOC(=O)CCCc1ccc(/N=N/N(C)C)cc1 | 3.54 | – |
| CN(CCc1ccccc1)/N=N/c1n[nH]cc1C(N)=O | 3.52 | – |
| CCOC(=O)c1nc(C)[nH]c1/N=N/N(C)C | 3.35 | – |
| CCOC(=O)c1c[nH]nc1/N=N/N(C)C | 3.35 | – |
| CN(C)/N=N/c1ccc(S(N)(=O)=O)cc1C(N)=O | 3.32 | – |
| CN(C)/N=N/c1ccc(C(=O)O)cc1 | 3.22 | – |
| CN(CCO)/N=N/c1ccccc1 | – | Activity (Mus musculus): Toxic; logP [3]: 1.71 |
| CN(C)/N=N/c1cccc(Cl)c1 | – | Activity (Mus musculus): Toxic |
| CN(C)/N=N/c1ccc(S(=O)(=O)Nc2ncccn2)cc1 | 3.74 | – |
| CN(C)/N=N/c1ccc(C#N)cc1C(N)=O | 3.46 | – |
| CN(C)/N=N/c1cccc([N+](=O)[O-])c1 | – | Activity (Mus musculus): Toxic; logD [5]: 2.75 |
| CCCCCCCCN(C)/N=N/c1ccc(Cl)cc1C(=O)O | 3.14 | – |
| C/N=N/Nc1ccccc1 | 3.6 | – |
| CCCCN(C)/N=N/c1c(C(N)=O)n[nH]c1C | 3.83 | – |
| CN(C)/N=N/c1ccccc1C(=O)O | 3.64 | – |
